Source: patent US9302999B2, “Substituted triazoles as herbicides” (E. I. DU PONT DE NEMOURS AND COMPANY, priority 2012, dated 2016)

Columns and labels:
Type in all cases: in vivo
[1] = test system: corn (Zea mays); experiment: Test A pre-/postemergence: corn; details: for Corn plant response rating: Postemergence; for Plant response rating, Corn: Preemergence
In short: (§1)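 Plants in loam–sand blend were treated with test chemicals in non-phytotoxic solvent with surfactant, either as preemergence directed soil spray or postemergence at 2–10 cm, one- to two-leaf stage. After about ten days in greenhouse, injury was rated visually against untreated controls on a 0–100 scale (100 = complete control).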

[2] = test system: velvetleaf (Abutilon theophrasti); experiment: Test A pre-/postemergence: velvetleaf; details: for Velvetleaf plant response rating: Postemergence; for Plant response rating, Velvetleaf: Preemergence
In short: as §1

[3] = test system: barnyardgrass (Echinochloa crus-galli); experiment: Test A pre-/postemergence: barnyardgrass; details: for Barnyardgrass plant response rating: Postemergence; for Plant response rating, Barnyardgrass: Preemergence
In short: as §1

[4] = test system: sedge, umbrella (small-flower umbrella sedge, Cyperus difformis); experiment: Test C flooded paddy test: sedge, umbrella; details: scale 0 to 100 (0 no effect, 100 complete control)
In short: (§2)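 Rating: visual, 0–100 (100 = complete control), versus untreated controls after 13 to 15 greenhouse days. Treatment went into paddy water held at 3 cm over the soil, on plants grown to two leaves.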

[5] = test system: pigweed (Amaranthus retroflexus); experiment: Test A pre-/postemergence: pigweed; details: for Pigweed plant response rating: Postemergence; for Plant response rating, Pigweed: Preemergence
In short: as §1

[6] = test system: foxtail, giant (giant foxtail, Setaria faberii); experiment: Test A pre-/postemergence: foxtail, giant; details: for Foxtail, Giant plant response rating: Postemergence; for Plant response rating, Foxtail, Giant: Preemergence
In short: as §1

[7] = test system: rice (Oryza sativa); experiment: Test C flooded paddy test: rice; details: scale 0 to 100 (0 no effect, 100 complete control)
In short: as §2

[8] = test system: crabgrass, large (large crabgrass, Digitaria sanguinalis); experiment: Test A pre-/postemergence: crabgrass, large; details: for Crabgrass, Large plant response rating: Postemergence; for Plant response rating, Crabgrass, Large: Preemergence
In short: as §1

[9] = test system: wheat (Triticum aestivum); experiment: Test A pre-/postemergence: wheat; details: for Wheat plant response rating: Postemergence; for Plant response rating, Wheat: Preemergence
In short: as §1

[10] = test system: barnyardgrass (Echinochloa crus-galli); experiment: Test C flooded paddy test: barnyardgrass; details: scale 0 to 100 (0 no effect, 100 complete control)
In short: as §2

[11] = test system: morningglory (Ipomoea spp.); experiment: Test A pre-/postemergence: morningglory; details: for Morningglory plant response rating: Postemergence; for Plant response rating, Morningglory: Preemergence
In short: as §1

[12] = test system: ducksalad (Heteranthera limosa); experiment: Test C flooded paddy test: ducksalad; details: scale 0 to 100 (0 no effect, 100 complete control)
In short: as §2

[13] = 125 g ai/ha, 0 to 100 scale, 0 is no effect, 100 is complete control
[14] = 500 g ai/ha, visual rating on 0 to 100 scale (0 no effect, 100 complete control), approximately ten days
[15] = 125 g ai/ha, 0 to 100 scale (0 no effect, 100 complete control)
[16] = 500 g ai/ha, 0 to 100 scale, 0 is no effect, 100 is complete control
[17] = Flood (flooded paddy test), 62 g ai/ha, visual rating after 13 to 15 days
[18] = Flood (flooded paddy test), 125 g ai/ha, visual rating after 13 to 15 days
[19] = Flood (flooded paddy test), 250 g ai/ha, visual rating after 13 to 15 days

## Cc1nn(-c2ccc(F)cc2)nc1Cc1ccnc(OCC(F)(F)F)c1 [Compound 33]
[1]; [13]
  Corn plant response rating: 0
[1]; [14]
  Corn plant response rating: 10
[1]; [15]
  Plant response rating, Corn: 0
[1]; [16]
  Plant response rating, Corn: 0
[2]; [13]
  Velvetleaf plant response rating: 0
[2]; [14]
  Velvetleaf plant response rating: 0
[2]; [15]
  Plant response rating, Velvetleaf: 0
[2]; [16]
  Plant response rating, Velvetleaf: 0
[3]; [13]
  Barnyardgrass plant response rating: 0
[3]; [14]
  Barnyardgrass plant response rating: 0
[3]; [15]
  Plant response rating, Barnyardgrass: 0
[3]; [16]
  Plant response rating, Barnyardgrass: 0
[4]; [17]
  Plant response rating, Sedge, Umbrella: 0
[4]; [18]
  Plant response rating, Sedge, Umbrella: 0
[4]; [19]
  Plant response rating, Sedge, Umbrella: 0
[4]; Flood, 31 g ai/ha
  Plant response rating, Sedge, Umbrella: 0
[5]; [13]
  Pigweed plant response rating: 10
[5]; [14]
  Pigweed plant response rating: 50
[5]; [15]
  Plant response rating, Pigweed: 0
[5]; [16]
  Plant response rating, Pigweed: 0
[6]; [13]
  Foxtail, Giant plant response rating: 0
[6]; [14]
  Foxtail, Giant plant response rating: 10
[6]; [15]
  Plant response rating, Foxtail, Giant: 0
[6]; [16]
  Plant response rating, Foxtail, Giant: 0
[7]; [17]
  Plant response rating, Rice: 0
[7]; [18]
  Plant response rating, Rice: 0
[7]; [19]
  Plant response rating, Rice: 0
[7]; Flood, 31 g ai/ha
  Plant response rating, Rice: 0
[8]; [13]
  Crabgrass, Large plant response rating: 0
[8]; [14]
  Crabgrass, Large plant response rating: 10
[8]; [15]
  Plant response rating, Crabgrass, Large: 0
[8]; [16]
  Plant response rating, Crabgrass, Large: 10
[9]; [13]
  Wheat plant response rating: 0
[9]; [14]
  Wheat plant response rating: 0
[9]; [15]
  Plant response rating, Wheat: 0
[9]; [16]
  Plant response rating, Wheat: 0
[10]; [17]
  Plant response rating, Barnyardgrass: 0
[10]; [18]
  Plant response rating, Barnyardgrass: 0
[10]; [19]
  Plant response rating, Barnyardgrass: 0
[10]; Flood, 31 g ai/ha
  Plant response rating, Barnyardgrass: 0
[11]; [13]
  Morningglory plant response rating: 0
[11]; [14]
  Morningglory plant response rating: 10
[11]; [15]
  Plant response rating, Morningglory: 0
[11]; [16]
  Plant response rating, Morningglory: 0
[12]; [17]
  Plant response rating, Ducksalad: 0
[12]; [18]
  Plant response rating, Ducksalad: 0
[12]; [19]
  Plant response rating, Ducksalad: 0
[12]; Flood, 31 g ai/ha
  Plant response rating, Ducksalad: 0

## Cc1nn(-c2ccc(F)cc2)nc1Cn1cnc(C(F)(F)F)c1Cl [Compound 36]
[1]; [13]
  Corn plant response rating: 0
[1]; [14]
  Corn plant response rating: 0
[1]; [15]
  Plant response rating, Corn: 0
[1]; [16]
  Plant response rating, Corn: 0
[2]; [13]
  Velvetleaf plant response rating: 0
[2]; [14]
  Velvetleaf plant response rating: 10
[2]; [15]
  Plant response rating, Velvetleaf: 0
[2]; [16]
  Plant response rating, Velvetleaf: 0
[3]; [13]
  Barnyardgrass plant response rating: 0
[3]; [14]
  Barnyardgrass plant response rating: 0
[3]; [15]
  Plant response rating, Barnyardgrass: 0
[3]; [16]
  Plant response rating, Barnyardgrass: 0
[4]; [17]
  Plant response rating, Sedge, Umbrella: 0
[4]; [18]
  Plant response rating, Sedge, Umbrella: 0
[4]; [19]
  Plant response rating, Sedge, Umbrella: 0
[4]; Flood, 31 g ai/ha
  Plant response rating, Sedge, Umbrella: 0
[5]; [13]
  Pigweed plant response rating: 0
[5]; [14]
  Pigweed plant response rating: 20
[5]; [15]
  Plant response rating, Pigweed: 0
[5]; [16]
  Plant response rating, Pigweed: 0
[6]; [13]
  Foxtail, Giant plant response rating: 0
[6]; [14]
  Foxtail, Giant plant response rating: 0
[6]; [15]
  Plant response rating, Foxtail, Giant: 0
[6]; [16]
  Plant response rating, Foxtail, Giant: 0
[7]; [17]
  Plant response rating, Rice: 0
[7]; [18]
  Plant response rating, Rice: 0
[7]; [19]
  Plant response rating, Rice: 0
[7]; Flood, 31 g ai/ha
  Plant response rating, Rice: 0
[8]; [13]
  Crabgrass, Large plant response rating: 0
[8]; [14]
  Crabgrass, Large plant response rating: 0
[8]; [15]
  Plant response rating, Crabgrass, Large: 0
[8]; [16]
  Plant response rating, Crabgrass, Large: 10
[9]; [13]
  Wheat plant response rating: 0
[9]; [14]
  Wheat plant response rating: 0
[9]; [15]
  Plant response rating, Wheat: 0
[9]; [16]
  Plant response rating, Wheat: 0
[10]; [17]
  Plant response rating, Barnyardgrass: 0
[10]; [18]
  Plant response rating, Barnyardgrass: 0
[10]; [19]
  Plant response rating, Barnyardgrass: 0
[10]; Flood, 31 g ai/ha
  Plant response rating, Barnyardgrass: 0
[11]; [13]
  Morningglory plant response rating: 0
[11]; [14]
  Morningglory plant response rating: 0
[11]; [15]
  Plant response rating, Morningglory: 0
[11]; [16]
  Plant response rating, Morningglory: 0
[12]; [17]
  Plant response rating, Ducksalad: 0
[12]; [18]
  Plant response rating, Ducksalad: 0
[12]; [19]
  Plant response rating, Ducksalad: 0
[12]; Flood, 31 g ai/ha
  Plant response rating, Ducksalad: 0

## Cc1nn(-c2cccc(C(F)(F)F)c2)nc1Oc1cc(C(F)(F)F)ncn1 [Compound 38]
[1]; [13]
  Corn plant response rating: 0
[1]; [14]
  Corn plant response rating: 0
[1]; [15]
  Plant response rating, Corn: 0
[1]; [16]
  Plant response rating, Corn: 0
[2]; [13]
  Velvetleaf plant response rating: 0
[2]; [14]
  Velvetleaf plant response rating: 60
[2]; [15]
  Plant response rating, Velvetleaf: 0
[2]; [16]
  Plant response rating, Velvetleaf: 0
[3]; [13]
  Barnyardgrass plant response rating: 0
[3]; [14]
  Barnyardgrass plant response rating: 0
[3]; [15]
  Plant response rating, Barnyardgrass: 0
[3]; [16]
  Plant response rating, Barnyardgrass: 0
[4]; [17]
  Plant response rating, Sedge, Umbrella: 0
[4]; [19]
  Plant response rating, Sedge, Umbrella: 0
[5]; [13]
  Pigweed plant response rating: 0
[5]; [14]
  Pigweed plant response rating: 30
[5]; [15]
  Plant response rating, Pigweed: 0
[5]; [16]
  Plant response rating, Pigweed: 10
[6]; [13]
  Foxtail, Giant plant response rating: 0
[6]; [14]
  Foxtail, Giant plant response rating: 0
[6]; [15]
  Plant response rating, Foxtail, Giant: 0
[6]; [16]
  Plant response rating, Foxtail, Giant: 20
[7]; [17]
  Plant response rating, Rice: 0
[7]; [19]
  Plant response rating, Rice: 0
[8]; [13]
  Crabgrass, Large plant response rating: 20
[8]; [14]
  Crabgrass, Large plant response rating: 50
[8]; [15]
  Plant response rating, Crabgrass, Large: 50
[8]; [16]
  Plant response rating, Crabgrass, Large: 60
[9]; [13]
  Wheat plant response rating: 0
[9]; [14]
  Wheat plant response rating: 0
[9]; [15]
  Plant response rating, Wheat: 0
[9]; [16]
  Plant response rating, Wheat: 0
[10]; [17]
  Plant response rating, Barnyardgrass: 0
[10]; [19]
  Plant response rating, Barnyardgrass: 0
[11]; [13]
  Morningglory plant response rating: 0
[11]; [14]
  Morningglory plant response rating: 0
[11]; [15]
  Plant response rating, Morningglory: 0
[11]; [16]
  Plant response rating, Morningglory: 0
[12]; [17]
  Plant response rating, Ducksalad: 0
[12]; [19]
  Plant response rating, Ducksalad: 0

## Cc1nn(-c2cccc(C(F)(F)F)c2)nc1Oc1ccnc(C(F)(F)F)c1 [Compound 40]
[1]; [13]
  Corn plant response rating: 10
[1]; [14]
  Corn plant response rating: 30
[1]; [15]
  Plant response rating, Corn: 0
[1]; [16]
  Plant response rating, Corn: 10
[2]; [13]
  Velvetleaf plant response rating: 70
[2]; [14]
  Velvetleaf plant response rating: 100
[2]; [15]
  Plant response rating, Velvetleaf: 10
[2]; [16]
  Plant response rating, Velvetleaf: 20
[3]; [13]
  Barnyardgrass plant response rating: 30
[3]; [14]
  Barnyardgrass plant response rating: 40
[3]; [15]
  Plant response rating, Barnyardgrass: 30
[3]; [16]
  Plant response rating, Barnyardgrass: 80
[4]; [17]
  Plant response rating, Sedge, Umbrella: 75
[4]; [18]
  Plant response rating, Sedge, Umbrella: 80
[4]; [19]
  Plant response rating, Sedge, Umbrella: 80
[4]; Flood, 31 g ai/ha
  Plant response rating, Sedge, Umbrella: 70
[5]; [13]
  Pigweed plant response rating: 100
[5]; [14]
  Pigweed plant response rating: 100
[5]; [15]
  Plant response rating, Pigweed: 90
[5]; [16]
  Plant response rating, Pigweed: 100
[6]; [13]
  Foxtail, Giant plant response rating: 60
[6]; [14]
  Foxtail, Giant plant response rating: 90
[6]; [15]
  Plant response rating, Foxtail, Giant: 100
[6]; [16]
  Plant response rating, Foxtail, Giant: 100
[7]; [17]
  Plant response rating, Rice: 10
[7]; [18]
  Plant response rating, Rice: 20
[7]; [19]
  Plant response rating, Rice: 25
[7]; Flood, 31 g ai/ha
  Plant response rating, Rice: 0
[8]; [13]
  Crabgrass, Large plant response rating: 80
[8]; [14]
  Crabgrass, Large plant response rating: 90
[8]; [15]
  Plant response rating, Crabgrass, Large: 100
[8]; [16]
  Plant response rating, Crabgrass, Large: 100
[9]; [13]
  Wheat plant response rating: 20
[9]; [14]
  Wheat plant response rating: 30
[9]; [15]
  Plant response rating, Wheat: 0
[9]; [16]
  Plant response rating, Wheat: 20
[10]; [17]
  Plant response rating, Barnyardgrass: 20
[10]; [18]
  Plant response rating, Barnyardgrass: 30
[10]; [19]
  Plant response rating, Barnyardgrass: 30
[10]; Flood, 31 g ai/ha
  Plant response rating, Barnyardgrass: 20
[11]; [13]
  Morningglory plant response rating: 70
[11]; [14]
  Morningglory plant response rating: 100
[11]; [15]
  Plant response rating, Morningglory: 0
[11]; [16]
  Plant response rating, Morningglory: 10
[12]; [17]
  Plant response rating, Ducksalad: 30
[12]; [18]
  Plant response rating, Ducksalad: 60
[12]; [19]
  Plant response rating, Ducksalad: 70
[12]; Flood, 31 g ai/ha
  Plant response rating, Ducksalad: 30
